Measured values published in patent US10098842B2, “Method and a device for producing nanoparticles” (Nanoform Finland Oy, priority 2014, dated 2018).

Test: Drug release (dissolution) tests in phosphate buffer pH 7.2
Type: physicochemical
Details: gelatin capsule, phosphate buffer pH 7.2, 37.0° C., 400 rpm
Procedure: Drug release tests for piroxicam nanoparticles and bulk (reference) piroxicam were done to investigate the effect of particle size on the dissolution rate. The tests were conducted in glass vials under heating (37.0±0.5° C.) and stirring (400 rpm) (H+P Labortechnik AG, Multitherm, Germany). Samples were placed in a gelatin capsule and anchored with an iron wire to prevent the capsule from surfacing. The capsule was then placed in glass vials containing phosphate buffer (50 mL; pH 7.2). Aliquots (1 mL) were taken at the time points ranging from 1 min to 48 hours. Drug release tests were conducted in triplicate. Samples were analyzed with high performance liquid chromatography (HPLC Thermo System Products, Agilent 1200 Infinity Series, Agilent Technologies, Germany) using a Discovery® C18 (Supelco Analytical, U.S.) column with guard column and a flow rate of 1 mL/min. The mobile phase was 60:40 (v/v) acetonitrile and 0.05% trifluoroacetic acid. The UV detection of piroxicam was set to 333 nm with a retention time of 2.9 min and total run time of 4 min at 30° C. A standard curve for […] quantification was made from piroxicam concentrations of 0.1-25 μg/mL (R^2=0.999).

SMILES: CN1C(C(=O)Nc2ccccn2)=C(O)c2ccccc2S1(=O)=O [bulk piroxicam, 4-hydroxy-2-methyl-N-(2-pyridinyl)-2H-1,2-benzothiazine-3-carboxamide 1,1-dioxide]
- dissolution rate compared with the literature (Lai et al. 2011): agreed and exceeded that reported in the literature
